The subject of data set [1] is MDA-MB-231. In words: MTT cytotoxic activity against breast MDA-MB-231 cancer cell line. In kind it is cell-based. The note with it: Homo sapiens, MDA-MB-231; MTT assay, 24 h treatment. An excerpt:
All the synthesised compounds were screened for their cytotoxic activity against breast MDA-MB-231 cancer cell line and compounds 6 and 12 against breast MCF-10A cell line taking CA-4 as a positive control for the analysis. The in vitro cytotoxicity results of the prepared compounds were systematised in Table 1. […] Structurally, the prepared molecules contain three structural variations; including rotatable hydrazide derivatives, the core exchange with imidazolone ring, and the ring expansion with triazinone motif. […] It is noticed that directly attached benzene ring to triazinone scaffold (compound 6) or bioisosteric group (thiazolyl ester) as in compound 12, may contribute to the astonishing cytotoxicity against breast MDA-MB-231 cancer cells.
To measure the cytotoxic activity of the synthesised derivatives 2a–13e in breast cancer (MDA-MB-231) cell line. MTT assay method was applied to assess cell viability assay. All experimental steps were conducted as reported earlier.
Part I: Biological Studies
4.3. Biological evaluation
4.3.1. Cytotoxic activity evaluation
The cytotoxic actvity of the synthesized derivatives 2a-13e was measured in MDA-MB-231 breast cancer cell line and derivatives 6 and 12 in MCF-10A […].
Cell viability assay was assessed using MTT assay method. Cells at density of 1 x 104 were seeded in a 96-well plate at 37 °C for 24 h under 5% CO2. After incubation, the cells were treated with different concentrations of the test schiff bases 2a-13e and incubated for 24 h, then 20 µl of MTT solution at 5 mg/mL was applied and incubated for 4 h at 37 °C.
Dimethyl sulphoxide (DMSO) in volume of 100 µl was added to each well to dissolve the purple formazan that had formed. The color intensity of the formazan product, which represents the growth condition of the cells, is quantified by using an ELISA plate reader (EXL 800, USA) at 570 nm absorbance. The experimental conditions were carried out with at least three replicates, and the experiments were repeated at least three times. […]
For orientation: Formazan colour is commonly taken as a measure of viable cells.

`COc1cc(C=C2N=C(c3cc(OC)c(OC)c(OC)c3)N(C(=O)c3cccc(OC(C)=O)c3)NC2=O)cc(OC)c1OC` (hydrate or solvate) [Compound 7, 3-(6-oxo-5–(3,4,5-trimethoxybenzylidene)-3-(3,4,5-trimethoxyphenyl)-1,2,5,6-tetrahydro-1,2,4-triazine-2-carbonyl)phenyl acetate]: the melting point lay in the range of 199 to 201 °C.
Compound `COc1cc(C=C2N=C(c3cc(OC)c(OC)c(OC)c3)N(C(N)=S)NC2=O)cc(OC)c1OC` (hydrate or solvate) [Compound 9, 6-oxo-5-(3,4,5-trimethoxybenzylidene)-3-(3,4,5-trimethoxyphenyl)-5,6-dihydro-1,2,4-triazine-2(1H)-carbothioamide] had a melting point of 239 to 241 °C.
For `COc1cc(C=C(NC(=O)c2cc(OC)c(OC)c(OC)c2)C(=O)NNC(=O)c2cccc(O)c2)cc(OC)c1OC` [Compound 2a, N-(3-(2-(3-hydroxybenzoyl)hydrazinyl)-3-oxo-1-(3,4,5-trimethoxyphenyl)prop-1-en-2-yl)-3,4,5-trimethoxybenzamide], the melting point is 241 to 243 °C. The IC50 in data set [1] came to 21.7 ± 1.17 µM.
With `COc1cc(C=C(NC(=O)c2cc(OC)c(OC)c(OC)c2)C(=O)NNC(=O)c2ccc(Br)cc2)cc(OC)c1OC` [Compound 2b, N-(3-(2-(4-bromobenzoyl)hydrazinyl)-3-oxo-1-(3,4,5-trimethoxyphenyl)prop-1-en-2-yl)-3,4,5-trimethoxybenzamide], the melting point lay in the range of 236 to 238 °C. Further, in data set [1], inhibition was half-maximal at 39.7 ± 1.8 µM (IC50).
In turn, `COc1cc(C=C(NC(=O)c2cc(OC)c(OC)c(OC)c2)C(=O)NNC(=O)c2ccncc2)cc(OC)c1OC` [Compound 2c, N-(3-(2-isonicotinoylhydrazinyl)-3-oxo-1-(3,4,5-trimethoxyphenyl)prop-1-en-2-yl)-3,4,5-trimethoxybenzamide] gave a melting point of 227 to 229 °C. Moreover, the IC50 in data set [1] amounted to 13.2 ± 0.71 µM.
`COc1cc(C=C(NC(=O)c2cc(OC)c(OC)c(OC)c2)C(=O)NNC(=S)Nc2ccccc2)cc(OC)c1OC` [Compound 3, 3,4,5-trimethoxy-N-(3-oxo-3-(2-(phenylcarbamothioyl)hydrazinyl)-1-(3,4,5-trimethoxyphenyl)prop-1-en-2-yl)benzamide] yielded a melting point of 212 to 214 °C. For the same compound, half-maximal inhibition in data set [1] (IC50) was put at 14.9 ± 0.8 µM.
In turn, `COc1cc(C=C2N=C(c3cc(OC)c(OC)c(OC)c3)NC2=O)cc(OC)c1OC` [Compound 4, 4-(3,4,5-trimethoxybenzylidene)-2-(3,4,5-trimethoxyphenyl)-1H-imidazol-5(4H)-one] had a melting point of 212 to 214 °C. In data set [1], this compound returned an IC50 of 36.8 ± 2.81 µM.
For `COc1cc(C=C2N=C(c3cc(OC)c(OC)c(OC)c3)N(N)C2=O)cc(OC)c1OC` [Compound 5, 1-amino-4-(3,4,5-trimethoxybenzylidene)-2-(3,4,5-trimethoxyphenyl)-1H-imidazol-5(4H)-one] the same measures were 205 to 207 °C and 57.1 ± 3.23 µM.
Turning to `COc1cc(C=C2N=C(c3cc(OC)c(OC)c(OC)c3)N(C(=O)c3cccc(OC(C)=O)c3)NC2=O)cc(OC)c1OC` [Compound 7, 3-(6-oxo-5–(3,4,5-trimethoxybenzylidene)-3-(3,4,5-trimethoxyphenyl)-1,2,5,6-tetrahydro-1,2,4-triazine-2-carbonyl)phenyl acetate], the IC50 in data set [1] is 13.7 ± 1.04 µM.
Turning to `COc1cc(C=C(NC(=O)c2cc(OC)c(OC)c(OC)c2)C(=O)NNC(N)=S)cc(OC)c1OC` [Compound 8, N-(3-(2-carbamothioylhydrazinyl)-3-oxo-1-(3,4,5-trimethoxyphenyl)prop-1-en-2-yl)-3,4,5-trimethoxybenzamide], the concentration for half-maximal inhibition (IC50) in data set [1] was found to be 31.5 ± 1.82 µM.
`COc1cc(C=C2N=C(c3cc(OC)c(OC)c(OC)c3)N(C(N)=S)NC2=O)cc(OC)c1OC` [Compound 9, 6-oxo-5-(3,4,5-trimethoxybenzylidene)-3-(3,4,5-trimethoxyphenyl)-5,6-dihydro-1,2,4-triazine-2(1H)-carbothioamide]: the IC50 in data set [1] is 4.14 ± 0.22 µM.
Take `CCOC(=O)Cc1csc(NNC(=O)C(=Cc2cc(OC)c(OC)c(OC)c2)NC(=O)c2cc(OC)c(OC)c(OC)c2)n1` [Compound 10, ethyl 2-(2-(2-(2-(3,4,5-trimethoxybenzamido)-3-(3,4,5-trimethoxyphenyl)acryloyl)hydrazinyl)thiazol-4-yl)acetate]: the melting point was 210 to 212 °C. This compound gave an IC50 in data set [1] of 4.8 ± 0.21 µM.
Regarding `COc1cc(C(=O)N/C=C(\C(=O)NNc2nc(-c3ccccc3)cs2)c2cc(OC)c(OC)c(OC)c2)cc(OC)c1OC` [Compound 11a, 3,4,5-Trimethoxy-N-(3-oxo-3-(2-(4-arylthiazol-2-yl)hydrazinyl)-1-(3,4,5-trimethoxyphenyl)prop-1-en-2-yl)benzamide], the melting point was in the range of 212 to 214 °C. The compound further showed an IC50 in data set [1] of 6.21 ± 0.47 µM.
For `COc1cc(C=C(NC(=O)c2cc(OC)c(OC)c(OC)c2)C(=O)NNc2nc(-c3ccc(Cl)cc3)cs2)cc(OC)c1OC` [Compound 11b, N-(3-(2-(4-(4-chlorophenyl)thiazol-2-yl)hydrazinyl)-3-oxo-1-(3,4,5-trimethoxyphenyl)prop-1-en-2-yl)-3,4,5-trimethoxybenzamide], the melting point fell in the range of 212 to 214 °C. Further, the IC50 in data set [1] worked out at 8.59 ± 2.38 µM.
For `COc1cc(C=C(NC(=O)c2cc(OC)c(OC)c(OC)c2)C(=O)NNc2nc(-c3ccc(Br)cc3)cs2)cc(OC)c1OC` [Compound 11c, N-(3-(2-(4-(4-bromophenyl)thiazol-2-yl)hydrazinyl)-3-oxo-1-(3,4,5-trimethoxyphenyl)prop-1-en-2-yl)-3,4,5-trimethoxybenzamide] the same measures were 212 to 214 °C and 25.7 ± 1.9 µM.
`COc1cc(C=C(NC(=O)c2cc(OC)c(OC)c(OC)c2)C(=O)NNc2nc(-c3cccc([N+](=O)[O-])c3)cs2)cc(OC)c1OC` [Compound 11d, 3,4,5-Trimethoxy-N-(3-(2-(4-(3-nitrophenyl)thiazol-2-yl)hydrazinyl)-3-oxo-1–(3,4,5-trimethoxyphenyl)prop-1-en-2-yl)benzamide] yielded a melting point of 212 to 214 °C. Also, half-maximal inhibition in data set [1] (IC50) required 12.2 ± 0.65 µM.
With `COc1cccc(-c2csc(NNC(=O)C(=Cc3cc(OC)c(OC)c(OC)c3)NC(=O)c3cc(OC)c(OC)c(OC)c3)n2)c1` [Compound 11e, 3,4,5-Trimethoxy-N-(3-(2-(4-(3-methoxyphenyl)thiazol-2-yl)hydrazinyl)-3-oxo-1–(3,4,5-trimethoxyphenyl)prop-1-en-2-yl)benzamide], the melting point fell in the range of 212 to 214 °C. The IC50 in data set [1] is greater than 100 µM.
Compound `COc1cc(C=C2N=C(c3cc(OC)c(OC)c(OC)c3)N(c3nc(-c4ccccc4)cs3)NC2=O)cc(OC)c1OC` [Compound 13a, 2-(4-Phenylthiazol-2-yl)-5-(3,4,5-trimethoxybenzylidene)-3–(3,4,5-trimethoxyphenyl)-1,2-dihydro-1,2,4-triazin-6(5H)-one] gave a melting point of 212 to 214 °C. The compound also came in with an IC50 in data set [1] of 19.6 ± 1.42 µM.
The compound `COc1cc(C=C2N=C(c3cc(OC)c(OC)c(OC)c3)N(c3nc(-c4ccc(Cl)cc4)cs3)NC2=O)cc(OC)c1OC` [Compound 13b, 2-(4-(4-Chlorophenyl)thiazol-2-yl)-5-(3,4,5-trimethoxybenzylidene)-3-(3,4,5-trimethoxyphenyl)-1,2-dihydro-1,2,4-triazin-6(5H)-one] had a melting point of 212 to 214 °C. The compound also showed an IC50 in data set [1] of 20.7 ± 1.58 µM.

In general, melting point refers to the temperature of the solid-liquid transition. As a reminder, the IC50 is the concentration that gives 50% inhibition.

Values taken from PMC9518609, “Design and synthesis of new trimethoxylphenyl-linked combretastatin analogues loaded on diamond nanoparticles as a panel for ameliorated solubility and antiproliferative activity” (Journal of Enzyme Inhibition and Medicinal Chemistry, 2022).
